Measured values taken from patent US11767310B2, “Nicotinamide RIPK1 inhibitors” (AbbVie Inc., priority 2021, dated 2023).
Like-named read-outs stand apart in the source and are kept apart here.

Assays:
Test in all cases: Kinase binding screen
EGFR(L861Q) = EGFR(L861Q) (Homo sapiens (Human), UniProt P00533, L861Q); settings: read-out: Percent Control at 100 nM Compound Concentration
TGFBR2 = TGFBR2 (Homo sapiens (Human), UniProt P37173); settings: read-out: Percent Control at 100 nM Compound Concentration
[1] = target: ABL1(Q252H)-nonphosphorylated (Homo sapiens (Human), UniProt P00519, Q252H); settings: read-out: Percent Control at 100 nM Compound Concentration
LRRK2(G2019S) = LRRK2(G2019S) (Homo sapiens (Human), UniProt Q5S007, G2019S); settings: read-out: Percent Control at 100 nM Compound Concentration
JNK2 = JNK2 (Homo sapiens (Human), UniProt P45984); settings: read-out: Percent Control at 100 nM Compound Concentration
HIPK3 = HIPK3 (Homo sapiens (Human), UniProt Q9H422); settings: read-out: Percent Control at 100 nM Compound Concentration
ERBB4 = ERBB4 (Homo sapiens (Human), UniProt Q15303); settings: read-out: Percent Control at 100 nM Compound Concentration
DYRK1B = DYRK1B (Homo sapiens (Human), UniProt Q9Y463); settings: read-out: Percent Control at 100 nM Compound Concentration
PRKX = PRKX (Homo sapiens (Human), UniProt P51817); settings: read-out: Percent Control at 100 nM Compound Concentration
PIK3CA(M10431) = PIK3CA(M10431) (Homo sapiens (Human), UniProt P42336, M1043I); settings: read-out: Percent Control at 100 nM Compound Concentration
Chain of PIK3CA(M10431) (P42336 whole entry M1043I): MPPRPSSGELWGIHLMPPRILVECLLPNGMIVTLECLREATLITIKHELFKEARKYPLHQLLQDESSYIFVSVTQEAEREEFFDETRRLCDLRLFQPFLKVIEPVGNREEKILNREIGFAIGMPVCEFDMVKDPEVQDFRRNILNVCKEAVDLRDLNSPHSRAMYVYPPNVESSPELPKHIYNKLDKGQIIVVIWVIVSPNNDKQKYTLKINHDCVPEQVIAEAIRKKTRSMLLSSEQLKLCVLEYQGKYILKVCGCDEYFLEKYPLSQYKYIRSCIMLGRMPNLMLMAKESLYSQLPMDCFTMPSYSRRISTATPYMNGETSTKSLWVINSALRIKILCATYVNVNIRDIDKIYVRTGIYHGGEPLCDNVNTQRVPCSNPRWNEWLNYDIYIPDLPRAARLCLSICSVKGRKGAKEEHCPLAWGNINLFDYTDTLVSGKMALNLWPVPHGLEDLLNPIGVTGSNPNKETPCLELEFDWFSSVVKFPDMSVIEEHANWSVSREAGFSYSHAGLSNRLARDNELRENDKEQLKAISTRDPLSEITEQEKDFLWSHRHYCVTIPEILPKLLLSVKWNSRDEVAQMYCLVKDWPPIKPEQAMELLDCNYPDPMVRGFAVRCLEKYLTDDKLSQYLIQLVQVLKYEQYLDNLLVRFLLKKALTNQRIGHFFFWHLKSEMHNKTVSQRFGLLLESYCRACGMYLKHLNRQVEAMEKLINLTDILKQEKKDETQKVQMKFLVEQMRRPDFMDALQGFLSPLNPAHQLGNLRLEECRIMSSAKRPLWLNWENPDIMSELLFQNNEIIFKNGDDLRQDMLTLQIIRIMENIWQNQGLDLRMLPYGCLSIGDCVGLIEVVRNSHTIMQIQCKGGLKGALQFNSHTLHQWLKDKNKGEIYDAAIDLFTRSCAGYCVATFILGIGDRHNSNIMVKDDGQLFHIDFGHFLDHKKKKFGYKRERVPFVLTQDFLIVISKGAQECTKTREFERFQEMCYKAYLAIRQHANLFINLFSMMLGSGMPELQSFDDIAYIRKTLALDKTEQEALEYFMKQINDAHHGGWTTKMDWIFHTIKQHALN

LKB1 = LKB1 (Homo sapiens (Human), UniProt Q15831); settings: read-out: Percent Control at 100 nM Compound Concentration
Chain of LKB1 (Q15831 whole entry): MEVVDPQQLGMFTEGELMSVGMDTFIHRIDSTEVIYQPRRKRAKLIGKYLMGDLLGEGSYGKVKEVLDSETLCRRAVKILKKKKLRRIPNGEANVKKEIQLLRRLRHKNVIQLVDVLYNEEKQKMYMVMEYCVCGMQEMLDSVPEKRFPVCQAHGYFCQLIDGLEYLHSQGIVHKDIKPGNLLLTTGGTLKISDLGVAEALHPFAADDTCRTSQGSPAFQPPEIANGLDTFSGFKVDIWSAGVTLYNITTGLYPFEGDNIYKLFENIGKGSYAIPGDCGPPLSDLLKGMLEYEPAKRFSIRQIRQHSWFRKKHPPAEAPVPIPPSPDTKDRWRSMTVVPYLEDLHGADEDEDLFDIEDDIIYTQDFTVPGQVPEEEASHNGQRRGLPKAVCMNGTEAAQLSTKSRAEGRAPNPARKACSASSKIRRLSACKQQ

PIK3CB = PIK3CB (Homo sapiens (Human), UniProt P42338); settings: read-out: Percent Control at 100 nM Compound Concentration
PIK3CA(E545A) = PIK3CA(E545A) (Homo sapiens (Human), UniProt P42336, E545A); settings: read-out: Percent Control at 100 nM Compound Concentration
Chain of PIK3CA(E545A) (P42336 whole entry E545A): as the sequence (P42336 whole entry M1043I) above, with E545A, I1043M counted along it

[2] = target: RSK1(Kin.Dom.1-N-terminal) (Homo sapiens (Human), UniProt Q15418); settings: read-out: Percent Control at 100 nM Compound Concentration
Chain of RSK1(Kin.Dom.1-N-terminal) (Q15418 62-321): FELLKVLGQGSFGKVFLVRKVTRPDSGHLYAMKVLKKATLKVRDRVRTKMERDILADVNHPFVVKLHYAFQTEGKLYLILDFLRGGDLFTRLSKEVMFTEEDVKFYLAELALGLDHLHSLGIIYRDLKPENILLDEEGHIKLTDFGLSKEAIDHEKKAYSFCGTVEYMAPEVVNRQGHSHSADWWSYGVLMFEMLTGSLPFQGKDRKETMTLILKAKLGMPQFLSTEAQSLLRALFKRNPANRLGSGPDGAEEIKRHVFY

FLT3(D835V) = FLT3(D835V) (Homo sapiens (Human), UniProt P36888, D835V); settings: read-out: Percent Control at 100 nM Compound Concentration
CAMK1G = CAMK1G (Homo sapiens (Human), UniProt Q96NX5); settings: read-out: Percent Control at 100 nM Compound Concentration
Chain of CAMK1G (Q96NX5 whole entry): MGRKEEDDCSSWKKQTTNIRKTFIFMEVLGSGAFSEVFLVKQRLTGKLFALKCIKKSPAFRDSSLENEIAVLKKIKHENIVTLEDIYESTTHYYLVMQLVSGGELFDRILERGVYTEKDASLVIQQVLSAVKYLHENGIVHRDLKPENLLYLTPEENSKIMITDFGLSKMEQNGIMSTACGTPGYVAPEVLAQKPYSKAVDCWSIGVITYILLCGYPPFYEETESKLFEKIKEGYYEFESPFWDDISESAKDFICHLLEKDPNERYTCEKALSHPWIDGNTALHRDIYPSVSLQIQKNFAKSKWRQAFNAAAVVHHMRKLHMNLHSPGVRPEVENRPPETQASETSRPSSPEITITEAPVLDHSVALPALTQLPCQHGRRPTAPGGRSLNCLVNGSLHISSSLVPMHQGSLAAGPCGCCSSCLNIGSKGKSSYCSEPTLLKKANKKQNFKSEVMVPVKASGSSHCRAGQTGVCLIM

TXK = TXK (Homo sapiens (Human), UniProt P42681); settings: read-out: Percent Control at 100 nM Compound Concentration
Chain of TXK (P42681 whole entry): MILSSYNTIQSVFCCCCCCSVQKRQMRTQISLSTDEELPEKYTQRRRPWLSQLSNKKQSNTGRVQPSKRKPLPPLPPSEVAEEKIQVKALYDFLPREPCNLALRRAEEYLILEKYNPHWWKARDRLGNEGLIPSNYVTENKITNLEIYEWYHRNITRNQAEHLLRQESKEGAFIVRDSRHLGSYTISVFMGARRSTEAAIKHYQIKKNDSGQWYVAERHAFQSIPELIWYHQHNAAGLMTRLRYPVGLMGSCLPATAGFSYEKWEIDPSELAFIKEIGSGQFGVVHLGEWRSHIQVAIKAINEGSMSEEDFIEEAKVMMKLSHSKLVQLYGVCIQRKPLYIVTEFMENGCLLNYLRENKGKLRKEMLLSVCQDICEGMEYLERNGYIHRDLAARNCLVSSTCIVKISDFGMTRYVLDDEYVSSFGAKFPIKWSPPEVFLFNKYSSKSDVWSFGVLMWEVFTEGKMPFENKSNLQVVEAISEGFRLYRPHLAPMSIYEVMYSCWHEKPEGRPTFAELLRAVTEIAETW

CSNK1E = CSNK1E (Homo sapiens (Human), UniProt P49674); settings: read-out: Percent Control at 100 nM Compound Concentration
Chain of CSNK1E (P49674 whole entry): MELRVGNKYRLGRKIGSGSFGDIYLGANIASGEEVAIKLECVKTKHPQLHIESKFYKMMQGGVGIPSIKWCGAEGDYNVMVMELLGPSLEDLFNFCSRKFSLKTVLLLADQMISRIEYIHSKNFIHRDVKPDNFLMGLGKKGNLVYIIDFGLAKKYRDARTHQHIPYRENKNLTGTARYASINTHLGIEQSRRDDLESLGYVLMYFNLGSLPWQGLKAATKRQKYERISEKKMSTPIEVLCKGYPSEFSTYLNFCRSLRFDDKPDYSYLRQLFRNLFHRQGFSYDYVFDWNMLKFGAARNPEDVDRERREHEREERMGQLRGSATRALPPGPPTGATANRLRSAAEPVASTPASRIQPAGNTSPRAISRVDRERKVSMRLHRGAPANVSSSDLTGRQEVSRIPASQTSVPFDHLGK

MEK6 = MEK6 (Homo sapiens (Human), UniProt P52564); settings: read-out: Percent Control at 100 nM Compound Concentration
FLT3(N841I) = FLT3(N841I) (Homo sapiens (Human), UniProt P36888, N841I); settings: read-out: Percent Control at 100 nM Compound Concentration
ULK1 = ULK1 (Homo sapiens (Human), UniProt O75385); settings: read-out: Percent Control at 100 nM Compound Concentration
MAP4K5 = MAP4K5 (Homo sapiens (Human), UniProt Q9Y4K4); settings: read-out: Percent Control at 100 nM Compound Concentration
Chain of MAP4K5 (Q9Y4K4 whole entry): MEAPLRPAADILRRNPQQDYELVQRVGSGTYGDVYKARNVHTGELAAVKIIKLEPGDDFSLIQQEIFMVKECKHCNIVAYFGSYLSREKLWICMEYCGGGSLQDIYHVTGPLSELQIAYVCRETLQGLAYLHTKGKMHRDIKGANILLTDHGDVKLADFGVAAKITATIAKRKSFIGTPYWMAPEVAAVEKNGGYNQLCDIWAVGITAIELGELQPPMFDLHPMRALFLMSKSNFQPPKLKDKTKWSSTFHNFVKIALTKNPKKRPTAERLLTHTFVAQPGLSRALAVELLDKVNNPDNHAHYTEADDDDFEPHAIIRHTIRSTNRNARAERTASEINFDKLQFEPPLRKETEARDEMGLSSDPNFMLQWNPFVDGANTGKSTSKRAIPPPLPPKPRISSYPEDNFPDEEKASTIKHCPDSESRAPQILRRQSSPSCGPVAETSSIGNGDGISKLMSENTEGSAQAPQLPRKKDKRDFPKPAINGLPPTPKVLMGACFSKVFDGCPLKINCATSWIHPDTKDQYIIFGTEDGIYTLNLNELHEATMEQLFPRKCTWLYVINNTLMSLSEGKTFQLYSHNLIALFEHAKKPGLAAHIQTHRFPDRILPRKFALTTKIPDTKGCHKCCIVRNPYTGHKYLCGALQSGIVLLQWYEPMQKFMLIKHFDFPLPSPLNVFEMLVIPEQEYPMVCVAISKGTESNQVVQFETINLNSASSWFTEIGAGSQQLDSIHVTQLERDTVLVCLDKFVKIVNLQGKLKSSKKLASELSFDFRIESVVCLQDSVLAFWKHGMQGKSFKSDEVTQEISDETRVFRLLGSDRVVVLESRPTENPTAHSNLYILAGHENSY

ABL1-nonphosphorylated = ABL1-nonphosphorylated (Homo sapiens (Human), UniProt P00519); settings: read-out: Percent Control at 100 nM Compound Concentration
CAMK2D = CAMK2D (Homo sapiens (Human), UniProt Q13557); settings: read-out: Percent Control at 100 nM Compound Concentration
FLT3(ITD) = tested on: FLT3(ITD); set-up: species or system human
PDGFRA = PDGFRA (Homo sapiens (Human), UniProt P16234); settings: read-out: Percent Control at 100 nM Compound Concentration
DAPK1 = DAPK1 (Homo sapiens (Human), UniProt P53355); settings: read-out: Percent Control at 100 nM Compound Concentration
EPHA8 = EPHA8 (Homo sapiens (Human), UniProt P29322); settings: read-out: Percent Control at 100 nM Compound Concentration
Chain of EPHA8 (P29322 28-1005): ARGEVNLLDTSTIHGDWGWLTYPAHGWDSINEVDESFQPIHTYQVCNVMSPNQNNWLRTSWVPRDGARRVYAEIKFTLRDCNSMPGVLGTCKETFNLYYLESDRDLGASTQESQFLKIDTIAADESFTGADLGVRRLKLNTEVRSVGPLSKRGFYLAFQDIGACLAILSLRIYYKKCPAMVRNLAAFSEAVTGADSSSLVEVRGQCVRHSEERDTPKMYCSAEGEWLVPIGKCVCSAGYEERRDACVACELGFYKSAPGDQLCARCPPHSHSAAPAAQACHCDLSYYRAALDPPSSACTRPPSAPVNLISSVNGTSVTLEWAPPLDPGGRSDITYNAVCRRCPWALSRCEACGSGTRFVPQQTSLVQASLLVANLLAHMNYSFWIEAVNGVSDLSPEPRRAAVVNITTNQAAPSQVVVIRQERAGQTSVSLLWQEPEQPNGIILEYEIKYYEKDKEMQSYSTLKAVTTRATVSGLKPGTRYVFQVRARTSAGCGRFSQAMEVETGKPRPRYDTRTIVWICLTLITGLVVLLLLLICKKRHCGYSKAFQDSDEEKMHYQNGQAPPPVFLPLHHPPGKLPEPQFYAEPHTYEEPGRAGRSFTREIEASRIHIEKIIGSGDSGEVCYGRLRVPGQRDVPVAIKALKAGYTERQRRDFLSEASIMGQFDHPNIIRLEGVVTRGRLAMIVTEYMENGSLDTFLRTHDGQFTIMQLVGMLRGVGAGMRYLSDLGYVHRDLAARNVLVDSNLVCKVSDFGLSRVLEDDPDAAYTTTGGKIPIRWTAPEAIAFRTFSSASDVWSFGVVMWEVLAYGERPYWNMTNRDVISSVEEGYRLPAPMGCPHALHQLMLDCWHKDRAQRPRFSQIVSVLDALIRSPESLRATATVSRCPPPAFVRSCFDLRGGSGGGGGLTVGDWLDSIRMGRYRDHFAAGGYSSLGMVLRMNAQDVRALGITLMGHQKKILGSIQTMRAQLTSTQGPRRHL

Structure (SMILES): CN(C[C@@H](O)Cc1ccccc1)C(=O)c1cncc(C#Cc2cnn(C(F)F)c2)c1 [Example 2, (S)-5-((1-(difluoromethyl)-1H-pyrazol-4-yl)ethynyl)-N-(2-hydroxy-3-phenylpropyl)-N-methylnicotinamide]
- remaining activity at 0.1 µM (EGFR(L861Q); EGFR(L861Q)): 100%
- remaining activity at 0.1 µM (TGFBR2; TGFBR2): 100%
- remaining activity at 0.1 µM ([1]; ABL1(Q252H)-nonphosphorylated): 92%
- remaining activity at 0.1 µM (LRRK2(G2019S); LRRK2(G2019S)): 100%
- remaining activity at 0.1 µM (JNK2; JNK2): 91%
- remaining activity at 0.1 µM (HIPK3; HIPK3): 100%
- remaining activity at 0.1 µM (ERBB4; ERBB4): 94%
- remaining activity at 0.1 µM (DYRK1B; DYRK1B): 97%
- remaining activity at 0.1 µM (PRKX; PRKX): 100%
- remaining activity at 0.1 µM (PIK3CA(M10431); PIK3CA(M10431)): 92%
- remaining activity at 0.1 µM (LKB1; LKB1): 70%
- remaining activity at 0.1 µM (PIK3CB; PIK3CB): 100%
- remaining activity at 0.1 µM (PIK3CA(E545A); PIK3CA(E545A)): 89%
- remaining activity at 0.1 µM ([2]; RSK1(Kin.Dom.1-N-terminal)): 96%
- remaining activity at 0.1 µM (FLT3(D835V); FLT3(D835V)): 100%
- remaining activity at 0.1 µM (CAMK1G; CAMK1G): 93%
- remaining activity at 0.1 µM (TXK; TXK): 100%
- remaining activity at 0.1 µM (CSNK1E; CSNK1E): 67%
- remaining activity at 0.1 µM (MEK6; MEK6): 100%
- remaining activity at 0.1 µM (FLT3(N841I); FLT3(N841I)): 99%
- remaining activity at 0.1 µM (ULK1; ULK1): 100%
- remaining activity at 0.1 µM (MAP4K5; MAP4K5): 87%
- remaining activity at 0.1 µM (ABL1-nonphosphorylated; ABL1-nonphosphorylated): 72%
- remaining activity at 0.1 µM (CAMK2D; CAMK2D): 100%
- Percent Control at 100 nM Compound Concentration (FLT3(ITD)): 100%
- remaining activity at 0.1 µM (PDGFRA; PDGFRA): 73%
- remaining activity at 0.1 µM (DAPK1; DAPK1): 100%
- remaining activity at 0.1 µM (EPHA8; EPHA8): 99%

Structure (SMILES): CN(C[C@H](Cc1ccccc1)OP(=O)(O)O)C(=O)c1cncc(C#Cc2cnn(C(F)F)c2)c1 [Example 19, (S)-1-(5-((1-(difluoromethyl)-1H-pyrazol-4-yl)ethynyl)-N-methylnicotinamido)-3-phenylpropan-2-yl dihydrogen phosphate]
- remaining activity at 0.1 µM (EGFR(L861Q)): 86%
- remaining activity at 0.1 µM (TGFBR2): 100%
- remaining activity at 0.1 µM [1]: 100%
- remaining activity at 0.1 µM (LRRK2(G2019S)): 93%
- remaining activity at 0.1 µM (JNK2): 92%
- remaining activity at 0.1 µM (HIPK3): 88%
- remaining activity at 0.1 µM (ERBB4): 93%
- remaining activity at 0.1 µM (DYRK1B): 79%
- remaining activity at 0.1 µM (PRKX): 100%
- remaining activity at 0.1 µM (PIK3CA(M10431)): 85%
- remaining activity at 0.1 µM (LKB1): 79%
- remaining activity at 0.1 µM (PIK3CB): 95%
- remaining activity at 0.1 µM (PIK3CA(E545A)): 94%
- remaining activity at 0.1 µM [2]: 100%
- remaining activity at 0.1 µM (FLT3(D835V)): 100%
- remaining activity at 0.1 µM (CAMK1G): 100%
- remaining activity at 0.1 µM (TXK): 100%
- remaining activity at 0.1 µM (CSNK1E): 74%
- remaining activity at 0.1 µM (MEK6): 96%
- remaining activity at 0.1 µM (FLT3(N841I)): 96%
- remaining activity at 0.1 µM (ULK1): 100%
- remaining activity at 0.1 µM (MAP4K5): 95%
- remaining activity at 0.1 µM (ABL1-nonphosphorylated): 96%
- remaining activity at 0.1 µM (CAMK2D): 100%
- Percent Control at 100 nM Compound Concentration (FLT3(ITD)): 100%
- remaining activity at 0.1 µM (PDGFRA): 85%
- remaining activity at 0.1 µM (DAPK1): 100%
- remaining activity at 0.1 µM (EPHA8): 100%
